Literature values, collected in patent US20070287647A1, “Nail Polish Remover” (priority 2006, published 2007).

Details: in vapor

Structure (SMILES): CC#N [acetonitrile]
- inhalation toxicity level: about 60 ppm
